From the NIST ThermoML archive (doi:10.1016/j.jct.2007.01.009)

Experiment: xn = mol fraction of the nth substance listed
Conditions: 101 kPa, Liquid, Pycnometric method

CC(O)CCC(C)O (stereo unspecified) [2,5-hexanediol] + O
mass density [kg/m3]
Conditions | 283.15 K | 288.15 K | 293.15 K | 298.15 K | 303.15 K | 308.15 K
x1 = 0.0008 | 999.67 | 999.06 | 998.13 | 996.94 | 995.52 | 993.87
x1 = 0.002 | 999.6 | 998.98 | 998.04 | 996.84 | 995.4 | 993.73
x1 = 0.0037 | 999.53 | 998.88 | 997.94 | 996.73 | 995.27 | 993.58
x1 = 0.0073 | 999.48 | 998.82 | 997.86 | 996.6 | 995.14 | 993.42
x1 = 0.009 | 999.54 | 998.85 | 997.84 | 996.58 | 995.09 | 993.35
x1 = 0.0102 | 999.61 | 998.88 | 997.84 | 996.58 | 995.07 | 993.31
x1 = 0.0123 | 999.75 | 998.97 | 997.89 | 996.6 | 995.05 | 993.25
x1 = 0.0142 | 999.92 | 999.08 | 997.96 | 996.64 | 995.05 | 993.21
x1 = 0.0159 | 1000.08 | 999.2 | 998.04 | 996.68 | 995.06 | 993.19
x1 = 0.0177 | 1000.27 | 999.34 | 998.14 | 996.74 | 995.07 | 993.17
x1 = 0.0263 | 1001.32 | 1000.14 | 998.73 | 997.13 | 995.23 | 993.17
x1 = 0.0353 | 1002.49 | 1001.07 | 999.39 | 997.56 | 995.43 | 993.19
x1 = 0.0516 | 1004.41 | 1002.55 | 1000.35 | 998.09 | 995.59 | 993
x1 = 0.0672 | 1005.71 | 1003.37 | 1000.75 | 998.16 | 995.35 | 992.44
x1 = 0.0688 | 1005.83 | 1003.42 | 1000.76 | 998.14 | 995.31 | 992.36
x1 = 0.0821 | 1006.35 | 1003.53 | 1000.63 | 997.8 | 994.75 | 991.62
x1 = 0.098 | 1006.33 | 1003.14 | 1000.02 | 996.97 | 993.8 | 990.55
x1 = 0.112 | 1005.71 | 1002.53 | 999.19 | 996.16 | 992.78 | 989.51

CCCCC(O)CO (stereo unspecified) [1,2-hexanediol] + O
mass density [kg/m3]
Conditions | 283.15 K | 288.15 K | 293.15 K | 298.15 K | 303.15 K | 308.15 K
x1 = 0.0009 | 999.77 | 999.33 | 998.26 | 997.06 | 995.65 | 993.92
x1 = 0.0018 | 999.85 | 999.35 | 998.28 | 997.06 | 995.66 | 993.92
x1 = 0.0036 | 1000.05 | 999.43 | 998.39 | 997.13 | 995.76 | 993.98
x1 = 0.0055 | 1000.31 | 999.57 | 998.54 | 997.24 | 995.78 | 994.13
x1 = 0.0077 | 1000.69 | 999.81 | 998.75 | 997.43 | 995.64 | 994.227
x1 = 0.009 | 1000.93 | 999.97 | 998.86 | 997.49 | 995.53 | 994.278
x1 = 0.0106 | 1001.22 | 1000.16 | 998.97 | 997.52 | 995.37 | 994.276
x1 = 0.0124 | 1001.49 | 1000.33 | 999.03 | 997.47 | 995.17 | 994.141
x1 = 0.0143 | 1001.65 | 1000.41 | 999.01 | 997.32 | 994.93 | 993.817
x1 = 0.016 | 1001.69 | 1000.38 | 998.91 | 997.13 | 994.7 | 993.395
x1 = 0.0178 | 1001.64 | 1000.25 | 998.73 | 996.87 | 994.45 | 992.869
x1 = 0.0351 | 999.52 | 997.75 | 995.76 | 993.77 | 991.54 | 988.24
x1 = 0.0672 | 995.27 | 993.06 | 990.72 | 988.37 | 985.8 | 981.847
x1 = 0.0968 | 991.84 | 989.37 | 986.7 | 983.93 | 981.37 | 977.569
x1 = 0.1119 | 990.47 | 987.91 | 985.24 | 982.11 | 979.56 | 975.746

OCCCCCCO [1,6-hexanediol] + O
mass density [kg/m3]
Conditions | 283.15 K | 288.15 K | 293.15 K | 298.15 K | 303.15 K | 308.15 K
x1 = 0.0009 | 999.67 | 999.02 | 998.12 | 996.93 | 995.54 | 993.92
x1 = 0.0019 | 999.65 | 998.96 | 998.04 | 996.83 | 995.42 | 993.78
x1 = 0.0037 | 999.63 | 998.86 | 997.92 | 996.68 | 995.24 | 993.57
x1 = 0.0054 | 999.64 | 998.8 | 997.84 | 996.58 | 995.11 | 993.41
x1 = 0.0074 | 999.66 | 998.78 | 997.78 | 996.49 | 994.99 | 993.24
x1 = 0.009 | 999.68 | 998.78 | 997.76 | 996.43 | 994.89 | 993.11
x1 = 0.0107 | 999.71 | 998.8 | 997.72 | 996.38 | 994.79 | 992.99
x1 = 0.0125 | 999.76 | 998.83 | 997.7 | 996.32 | 994.69 | 992.87
x1 = 0.0145 | 999.83 | 998.88 | 997.68 | 996.26 | 994.59 | 992.74
x1 = 0.0159 | 999.88 | 998.92 | 997.67 | 996.23 | 994.52 | 992.65
x1 = 0.0177 | 999.96 | 998.98 | 997.66 | 996.18 | 994.43 | 992.54
x1 = 0.0349 | 1000.78 | 999.42 | 997.56 | 995.67 | 993.61 | 991.57
x1 = 0.0514 | 1001.11 | 999.3 | 997.34 | 995.07 | 992.8 | 990.58
x1 = 0.0694 | 1001.08 | 998.88 | 996.87 | 994.3 | 991.84 | 989.39
x1 = 0.0983 | 1000.63 | 997.95 | 995.62 | 992.81 | 990.14 | 987.3
x1 = 0.112 | 1000.09 | 997.54 | 994.84 | 992.04 | 989.26 | 986.33

CC(O)CCCCO (stereo unspecified) [1,5-hexanediol] + O
mass density [kg/m3]
Conditions | 283.15 K | 288.15 K | 293.15 K | 298.15 K | 303.15 K | 308.15 K
x1 = 0.001 | 999.62 | 999.01 | 998.08 | 996.9 | 995.49 | 993.87
x1 = 0.0021 | 999.54 | 998.92 | 997.97 | 996.78 | 995.34 | 993.69
x1 = 0.0037 | 999.45 | 998.83 | 997.87 | 996.64 | 995.17 | 993.47
x1 = 0.0053 | 999.39 | 998.77 | 997.8 | 996.54 | 995.05 | 993.32
x1 = 0.0071 | 999.38 | 998.74 | 997.74 | 996.46 | 994.97 | 993.19
x1 = 0.0089 | 999.41 | 998.73 | 997.7 | 996.4 | 994.91 | 993.09
x1 = 0.0111 | 999.49 | 998.75 | 997.68 | 996.36 | 994.86 | 992.99
x1 = 0.0145 | 999.68 | 998.84 | 997.7 | 996.34 | 994.79 | 992.85
x1 = 0.0194 | 1000.04 | 999.07 | 997.8 | 996.37 | 994.7 | 992.68
x1 = 0.0324 | 1001.21 | 999.91 | 998.22 | 996.47 | 994.45 | 992.23
x1 = 0.0507 | 1002.48 | 1000.63 | 998.55 | 996.31 | 994.04 | 991.47
x1 = 0.0738 | 1002.95 | 1000.72 | 998.24 | 995.66 | 993.05 | 990.3
